In patent publication US12180187B2, “1-phenyl-5-azinylpyrazolyl-3-oxyalkyl acids and their use for controlling unwanted plant growth” (BAYER AKTIENGESELLSCHAFT, priority 2019, dated 2024):

Experiments:
[1] = tested on: VERPE; test: Pre-emergence action against VERPE, 1280 g/ha; type: in vivo, Veronica persica; conditions: scored visually after about 3 weeks vs untreated controls (100% = plants have died)
Method in brief: (§1)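 Mono- and dicot weed seeds sown in sandy loam were treated on the covering soil surface with WP or EC formulations plus 0.5% additive at 600 L water/ha. Pots stayed in a greenhouse; damage was scored visually after ~3 weeks as percent versus untreated controls (100% = dead).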

[2] = tested on: MATIN; test: Pre-emergence action against MATIN, 1280 g/ha; type: in vivo, Tripleurospermum inodorum (Matricaria inodora); conditions: scored visually after about 3 weeks vs untreated controls (100% = plants have died)
Method in brief: as §1

[3] = tested on: LOLRI; test: Pre-emergence action against LOLRI, 1280 g/ha; type: in vivo, Lolium rigidum; conditions: visual scoring after about 3 weeks vs untreated controls, 100% = plants have died, 0% = like control plants
Method in brief: as §1

[4] = tested on: STEME; test: Post-emergence action against STEME, 1.28 kg/ha; type: in vivo, Stellaria media; conditions: dosage 1280 g/ha, visual rating about 3 weeks after treatment vs untreated controls (100% = plants died)
Method in brief: (§2)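 Spray at one-leaf stage with WP/EC + 0.5% additive, 600 L water/ha. Greenhouse, optimum conditions, ~3 wk. Visual % control vs untreated; 0 = no effect, 100 = dead.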

[5] = tested on: SETVI; test: Pre-emergence action against SETVI, 1280 g/ha; type: in vivo, Setaria viridis; conditions: visual scoring after about 3 weeks vs untreated controls, 100% = plants have died, 0% = like control plants
Method in brief: as §1

[6] = tested on: POAAN; test: Pre-emergence action against POAAN, 1280 g/ha; type: in vivo, Poa annua; conditions: visual scoring after about 3 weeks vs untreated controls, 100% = plants have died, 0% = like control plants
Method in brief: as §1

[7] = tested on: AMARE; test: Pre-emergence action against AMARE, 1280 g/ha; type: in vivo, Amaranthus retroflexus; conditions: scored visually after about 3 weeks vs untreated controls (100% = plants have died)
Method in brief: as §1

[8] = tested on: ALOMY; test: Post-emergence action against ALOMY, 1.28 kg/ha; type: in vivo, Alopecurus myosuroides; conditions: dosage 1280 g/ha, visual rating about 3 weeks after treatment vs untreated controls
Method in brief: as §2

[9] = tested on: KCHSC; test: Post-emergence action against KCHSC, 1.28 kg/ha; type: in vivo, Bassia scoparia; conditions: dosage 1280 g/ha, visual rating about 3 weeks after treatment vs untreated controls (100% = plants died)
Protocol: • a) Seeds of mono- and dicotyledonous weed plants are placed in plastic pots in sandy loam soil (twin sowing with one species each of mono- or dicotyledonous weed plants per pot), covered with soil and cultivated in a greenhouse under controlled growth conditions. 2 to 3 weeks after sowing, the test plants are treated at the one-leaf stage. The compounds of the invention, formulated in the form of wettable powders (WP) or as emulsion concentrates (EC), are applied to the green parts of the plants as aqueous suspension or emulsion with addition of 0.5% additive at a water application rate equivalent to 600 litres per hectare. After the test plants have been kept in the greenhouse under optimum growth conditions for about 3 weeks, the activity of the preparations is rated visually in comparison to untreated controls. For example, 100% activity=the plants have died, 0% activity=like control plants. As shown by the results, compounds of the general formula (I) of the invention, in post-emergence treatment, have very good herbicidal efficacy (90% to 100% herbicidal action) against harmful plants such as Abutilon theophrasti, Digitaria sanguinalis, Echinochloa crus-galli, Matricaria inodora, Poa annua, at an application rate of 1.28 kg of active substance per hectare.

[10] = tested on: ABUTH; test: Post-emergence action against ABUTH, 1.28 kg/ha; type: in vivo, Abutilon theophrasti; conditions: dosage 1280 g/ha, visual rating about 3 weeks after treatment vs untreated controls (100% = plants died)
Method in brief: as §2

[11] = tested on: STEME; test: Pre-emergence action against STEME, 1280 g/ha; type: in vivo, Stellaria media; conditions: scored visually after about 3 weeks vs untreated controls (100% = plants have died)
Method in brief: as §1

[12] = tested on: ECHCG; test: Pre-emergence action against ECHCG, 1280 g/ha; type: in vivo, Echinochloa crus-galli; conditions: visual scoring after about 3 weeks vs untreated controls, 100% = plants have died, 0% = like control plants
Method in brief: as §1

[13] = tested on: ECHCG; test: Post-emergence action against ECHCG, 1.28 kg/ha; type: in vivo, Echinochloa crus-galli; conditions: dosage 1280 g/ha, visual rating about 3 weeks after treatment vs untreated controls
Method in brief: as §2

[14] = tested on: POAAN; test: Post-emergence action against POAAN, 1.28 kg/ha; type: in vivo, Poa annua; conditions: dosage 1280 g/ha, visual rating about 3 weeks after treatment vs untreated controls
Method in brief: as §2

[15] = tested on: DIGSA; test: Pre-emergence action against DIGSA, 1280 g/ha; type: in vivo, Digitaria sanguinalis; conditions: visual scoring after about 3 weeks vs untreated controls, 100% = plants have died, 0% = like control plants
Method in brief: as §1

[16] = tested on: ALOMY; test: Pre-emergence action against ALOMY, 1280 g/ha; type: in vivo, Alopecurus myosuroides; conditions: visual scoring after about 3 weeks vs untreated controls, 100% = plants have died, 0% = like control plants
Method in brief: as §1

[17] = tested on: AMARE; test: Post-emergence action against AMARE, 1.28 kg/ha; type: in vivo, Amaranthus retroflexus; conditions: dosage 1280 g/ha, visual rating about 3 weeks after treatment vs untreated controls (100% = plants died)
Method in brief: as §2

[18] = tested on: KCHSC; test: Pre-emergence action against KCHSC, 1280 g/ha; type: in vivo, Bassia scoparia; conditions: scored visually after about 3 weeks vs untreated controls (100% = plants have died)
Excerpt: 1. Pre-Emergence Herbicidal Effect and Crop Plant Compatibility a) Seeds of mono- and dicotyledonous weed plants are placed in plastic pots in sandy loam soil (doubly sown with one species each of mono- or dicotyledonous weed plants per pot) and covered with soil. The compounds of the invention, formulated in the form of wettable powders (WP) or as emulsion concentrates (EC), are then applied onto the surface of the covering soil as aqueous suspension or emulsion with addition of 0.5% additive at a water application rate equivalent to 600 litres per hectare. After the treatment, the pots are placed in a greenhouse and kept under good growth conditions for the trial plants. After about 3 weeks, the effect of the preparations is scored visually in comparison with untreated controls as percentages. For example, 100% activity=the plants have died, 0% activity=like control plants. 1. Pre-Emergence Effectiveness Tables 1 to 12 below show the effects of selected compounds of the general formula (I) according to Tables 1 and 2 on various harmful plants and at an application rate corresponding to 1280 g/ha, which were obtained by the experimental procedure mentioned above.

[19] = tested on: VERPE; test: Post-emergence action against VERPE, 1.28 kg/ha; type: in vivo, Veronica persica; conditions: dosage 1280 g/ha, visual rating about 3 weeks after treatment vs untreated controls (100% = plants died)
Method in brief: as §2

[20] = tested on: MATIN; test: Post-emergence action against MATIN, 1.28 kg/ha; type: in vivo, Tripleurospermum inodorum (Matricaria inodora); conditions: dosage 1280 g/ha, visual rating about 3 weeks after treatment vs untreated controls (100% = plants died)
Method in brief: as §2

[21] = tested on: DIGSA; test: Post-emergence action against DIGSA, 1.28 kg/ha; type: in vivo, Digitaria sanguinalis; conditions: dosage 1280 g/ha, visual rating about 3 weeks after treatment vs untreated controls
Method in brief: as §2

[22] = tested on: SETVI; test: Post-emergence action against SETVI, 1.28 kg/ha; type: in vivo, Setaria viridis; conditions: dosage 1280 g/ha, visual rating about 3 weeks after treatment vs untreated controls
Method in brief: as §2

Row | Structure (SMILES) | Pre-emergence action against VERPE [1] [%] | Pre-emergence action against MATIN [2] [%] | Pre-emergence action against LOLRI [3] [%] | Post-emergence action against STEME [4] [%] | Pre-emergence action against SETVI [5] [%] | Pre-emergence action against POAAN [6] [%] | Pre-emergence action against AMARE [7] [%] | Post-emergence action against ALOMY [8] [%] | Post-emergence action against KCHSC [9] [%] | Pre-emergence action against STEME [11] [%] | Pre-emergence action against ECHCG [12] [%] | Post-emergence action against ECHCG [13] [%] | Post-emergence action against POAAN [14] [%] | Pre-emergence action against DIGSA [15] [%] | Pre-emergence action against ALOMY [16] [%] | Post-emergence action against AMARE [17] [%] | Pre-emergence action against KCHSC [18] [%] | Post-emergence action against VERPE [19] [%] | Post-emergence action against MATIN [20] [%] | Post-emergence action against DIGSA [21] [%] | other results
1 | COC(=O)CNC(=O)COc1nn(-c2ccc(F)cc2)c(-c2ccc(F)nc2)c1C(F)(F)F [Example X-020] | 90 | 90 | 100 | 100 | 100 | 100 | 90 | 100 | 100 | 90 | 100 | 100 | 100 | 100 | 100 | 100 | 90 | 100 | 90 | – | Post-emergence action against ABUTH [10]: 90%
2 | CON(C)C(=O)COc1nn(-c2ccc(F)cc2F)c(-c2ccc(F)nc2)c1Br [Example X-025] | 100 | 100 | 100 | – | 100 | 100 | 100 | 100 | 90 | 100 | 100 | 100 | 100 | 100 | 100 | – | 100 | 100 | 90 | 100 | –
3 | O=C(COc1nn(-c2ccc(F)cc2F)c(-c2ccc(F)nc2)c1Br)NO [Example X-028] | 90 | 100 | 100 | 90 | 100 | 100 | 100 | 100 | 90 | 100 | 100 | 100 | 100 | 100 | 90 | – | 100 | 100 | 100 | – | Post-emergence action against SETVI [22]: 90%
4 | O=C(O)COc1nn(-c2ccccc2F)c(-c2ccnnc2)c1Br [IV-002] | – | 100 | – | 100 | 100 | 100 | 100 | – | 90 | 100 | 100 | – | 100 | 90 | – | 100 | 90 | 90 | 90 | 100 | Post-emergence action against ABUTH [10]: 90%
5 | CCOC(=O)COc1nn(-c2ccccc2F)c(-c2cncnc2)c1[N+](=O)[O-] [VI-005] | 100 | 100 | 100 | 100 | 100 | 100 | 100 | 90 | 90 | 100 | 90 | 90 | 100 | 100 | 90 | 90 | 90 | 90 | 90 | – | Post-emergence action against ABUTH [10]: 90%
6 | COC(=O)[C@H](C)Oc1nn(-c2ccccc2F)c(-c2cncnc2)c1Br [VI-008] | – | 90 | 100 | 90 | 100 | 100 | 100 | – | 90 | 100 | – | – | 100 | 100 | – | – | 90 | – | 90 | 100 | Post-emergence action against ABUTH [10]: 90%
7 | CC(Oc1nn(-c2ccccc2F)c(-c2ccc(F)nc2)c1Br)C(=O)O (stereo not drawn) [VII-096] | 100 | 100 | 100 | 100 | 100 | 100 | 100 | 100 | 90 | 100 | 100 | 90 | 100 | 100 | 100 | 100 | 100 | 90 | 90 | 100 | Post-emergence action against SETVI [22]: 90%
8 | O=C(O)COc1nn(-c2ccc(F)cc2)c(-c2ccc(F)nc2)c1C(F)(F)F [VII-125] | 90 | 90 | 100 | 90 | 100 | 100 | 90 | 100 | 90 | 90 | 100 | 90 | 100 | 100 | – | 90 | 100 | 100 | 90 | 100 | –
